# PMC10931833, “Simultaneous Purification of Human Interferon Alpha-2b and Serum Albumin Using Bioprivileged Fluorinated Ionic Liquid-Based Aqueous Biphasic Systems” (International Journal of Molecular Sciences, 2024)
# Legend:
# [1] = ref 44 (IFN-α2b), 91 (BSA), 96 (Lys); cited from earlier work
# IFN-α2b [2] = target: T1, IFN-α2b (Homo sapiens, UniProt P01563); experiment: CD thermal unfolding (Tm) of IFN-α2b; type: physicochemical
# T1 construct: single non-glycosylated polypeptide chain with a molecular weight of 19 kDa, comprising 165 amino acids; purchased Millipore Sigma-Aldrich SRP4595-100UG; host or cells: E. coli
# Procedure: The same analyses attained for 208 nm and 192 nm are illustrated in Figures S5 and S6 in the Supplementary Materials. The corresponding T m values are estimated by fitting to a sigmoid with four parameters (one-way ANOVA, significance level of 0.05) and summarized in Table S2 in the Supplementary Materials. The CD T m of 0.125 mg/mL native IFN- α 2b is in good agreement with what was previously reported. […] The estimated T m values are summarized in Table S2 in the Supplementary Materials. The same analysis is attained for 208 nm and 192 nm, as depicted in Figures S5 and S6 in the Supplementary Materials. All the CD T m results are summarized in Table S2 in the Supplementary Materials. The thermal stability assessed by far-UV CD is solely determined through the thermal decay of the alpha-helical structure.
# The same analysis was attained for 208 nm and 192 nm as illustrated in Figure S13 in the Supplementary Materials. The corresponding T m values are depicted in Table 5, and were estimated by fitting a sigmoid with four parameters (one-way ANOVA, with a significance level of 0.05).
# IFN-α2b [3] = target: T1, IFN-α2b; experiment: Far-UV CD secondary structure of IFN-α2b (CONTIN-LL deconvolution); type: physicochemical
# Source text: (§1) Circular dichroism (CD) is widely used to study the secondary structures of proteins, peptides and nucleic acids, because it requires a low concentration sample, is a nondestructive method, allows studying a wide range of variables (temperature, pH, etc.), and provides information on the effect of added ligands on protein folding and interactions.
# Circular dichroism (CD) spectra were collected in a 10 mm quartz cuvette and a Chirascan spectropolarimeter (Applied Photophysics, UK) at room temperature. All CD spectra were recorded in the far-UV range of 190 to 260 nm at scan rates of 50 nm/min, with 4 accumulations, and a response time of 3 s; CD spectra were collected. For each CD experiment, two distinct duplicates were acquired and combined. […] Spectral deconvolution was carried out with DichroWeb using the CONTIN-LL deconvolution algorithm with the SMP180 reference set.
# FITC-BSA = target: T2, FITC-BSA (Bos taurus, UniProt P02769); experiment: MST binding to FITC-BSA; design: species or system bovine; conditions: 0.41 μM BSA
# T2 construct: purchased Millipore Sigma-Aldrich
# Procedure: Herein, a commercial FITC labeling kit (Section 3) was used to fluorescently tag both IFN- α 2b and BSA. Typically, in the labeling process, one amine per protein is labeled, statistically distributing the position of the dye. […] The MST assay was performed as detailed in Section 3. The solutions were prepared with a concentration of IFN- α 2b and BSA fixed at 0.41 μ M in water. For IFN- α 2b a concentration of 2.7 μ M was also prepared to compare it with previous results on MST-binding between FILs and IFN- α 2b fluorescently labeled with a different tag. In each run of MST, a maximum concentration of a ligand is selected and consecutively diluted in sixteen capillaries. […] The experimental conditions of the MST assay only allow the study of the aggregation phenomenon individually for the first CAC.
# Microscale thermophoresis (MST) measurements of the dye-labeled protein were used to conduct binding investigations. […] MST tests were conducted in a monolith NT.115 (blue/red) in accordance with the NanoTemper Technologies methodology. Medium MST power and 20% LED power (nano-blue) were set as the instrument’s default settings. For every MST measurement, a PBS buffer was used. The concentration of FITC-BSA was fixed at 0.4 μ M and FITC-IFN- α 2b was tested under two different concentrations (of 0.4 and 2.7 μ M). The ligand was used to create a set of 16 1:1 dilutions, with the starting ligand concentrations ranging from 10 to 400 mM. The typical parameters for MST traces were used for recording: […], 30 s MST power on, and 5 s MST power off. The data from three independently conducted pipetted experiments were examined using NanoTemper Technologies’ MO.Affinity Analysis software, version 2.3.
# BSA [4] = target: T3, BSA (Bos taurus, UniProt P02769); experiment: Far-UV CD secondary structure of BSA (CONTIN-LL deconvolution); type: physicochemical, bovine; design: Regular Alpha Helix / Distorted Alpha Helix / Regular Beta Sheet / Distorted Beta Sheet / Turns / Unordered: unit not given here; conditions: 1.0 mg/mL BSA, 25 °C
# T3 construct: purchased Millipore Sigma-Aldrich
# Source text: as §1, with “interactions. Far-UV (190–260 nm) CD spectroscopy was used to assess the IFN- α 2b and BSA secondary structure since the spectra are characteristic of different structural elements.” for “interactions.”
# Circular dichroism (CD) spectra were collected in a 10 mm quartz cuvette and a Chirascan spectropolarimeter (Applied Photophysics, UK) at room temperature. All CD spectra were recorded in the far-UV range of 190 to 260 nm at scan rates of 50 nm/min, with 4 accumulations, and a response time of 3 s; CD spectra were collected. For each CD experiment, two distinct duplicates were acquired and combined. BSA was fixed at 1 mg/mL, solvent concentrations ranging from 0.1 to 200 mM were used, and the spectra were translated to MRE after being expressed in terms of molar ellipticity. Spectral deconvolution was carried out with DichroWeb using the CONTIN-LL deconvolution algorithm with the SMP180 reference set.
# BSA [5] = target: T3, BSA; experiment: DSC thermal unfolding of BSA in water and aqueous solutions of ABS phase-forming components; type: physicochemical, bovine; conditions: for Tm / ΔG / ΔHcal / ΔHcal/ΔHvH / ΔHvH / ΔS: 1.0 mg/mL BSA
# Procedure: Differential scanning calorimetry (DSC) measurements were performed with Nano DSC equipment, as detailed in Section 3, and used to determine the melting temperature (T m ) and enthalpy ( Δ H) of protein unfolding. DSC analyzes changes in the structure and stability of proteins as thermal transitions at the nanoscale. Using DSC to measure heat capacity as a function of the temperature of a well-studied protein such as BSA provides keen insights into folding and unfolding processes, as well as factors affecting stability. Due to the volume and concentration requirements of the DSC technique, and the constraints in available quantities of IFN- α 2b the DSC experiments on the ABS phase-forming components’ effect on the structural properties of proteins were attained only for BSA.
# The T m of BSA, which corresponds to the thermal unfolding transition midpoint, was measured in the absence and presence of the ABS phase-forming components at increasing concentrations (see Figure 1 and Table 2).
# BSA [6] = target: T3, BSA; experiment: CD thermal unfolding (Tm) of BSA; type: physicochemical, bovine; conditions: 1.0 mg/ml BSA, 200 mM component aqueous solution
# Source text: The thermal stability assessed by far-UV CD is solely determined through the thermal decay of the alpha-helical structure.
# [7] = 0.099-0.12 mg/mL IFN-α2b in [N1112(OH)][C4F9SO3]-rich phase of BP#8
# [8] = 0.125 mg/mL IFN-α2b in water, 25 °C
# T1 sequence (P01563 24-188): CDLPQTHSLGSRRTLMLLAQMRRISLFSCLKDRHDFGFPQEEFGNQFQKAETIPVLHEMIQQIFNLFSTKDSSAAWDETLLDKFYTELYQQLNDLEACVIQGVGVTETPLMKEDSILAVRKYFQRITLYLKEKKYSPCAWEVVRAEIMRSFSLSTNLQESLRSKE
# T3 sequence (P02769 25-607): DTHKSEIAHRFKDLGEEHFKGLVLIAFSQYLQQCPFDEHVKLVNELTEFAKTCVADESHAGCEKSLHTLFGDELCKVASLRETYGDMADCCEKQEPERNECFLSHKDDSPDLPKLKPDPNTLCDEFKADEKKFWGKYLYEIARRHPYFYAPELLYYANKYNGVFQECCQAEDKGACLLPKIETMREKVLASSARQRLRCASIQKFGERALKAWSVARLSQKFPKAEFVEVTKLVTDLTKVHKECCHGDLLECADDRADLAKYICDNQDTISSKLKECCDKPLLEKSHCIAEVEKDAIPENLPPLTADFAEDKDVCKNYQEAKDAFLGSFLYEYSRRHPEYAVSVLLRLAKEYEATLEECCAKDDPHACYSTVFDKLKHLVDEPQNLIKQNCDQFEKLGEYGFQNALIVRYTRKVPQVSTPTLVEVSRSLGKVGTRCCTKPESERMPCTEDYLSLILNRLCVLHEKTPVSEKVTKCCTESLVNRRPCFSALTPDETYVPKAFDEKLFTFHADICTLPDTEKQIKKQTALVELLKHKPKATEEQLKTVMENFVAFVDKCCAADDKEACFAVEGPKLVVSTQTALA
# T2 sequence (P02769 25-607): as above
compound,measurement,setting,value
Human interferon-alpha 2b [IFN-α2b],iso-electric point,[1],around 5.9
same,"Tm, Ellipticity 192 nm",IFN-α2b [2]; 0.125 mg/mL IFN-α2b in water,63.311 °C
same,"Tm, Ellipticity 208 nm",IFN-α2b [2]; 0.125 mg/mL IFN-α2b in water,66.156 °C
same,"Tm, Ellipticity 222 nm",IFN-α2b [2]; 0.125 mg/mL IFN-α2b in water,67.548 °C
same,"Tm, Ellipticity 192 nm",IFN-α2b [2]; [7],42.274 °C
same,"Tm, Ellipticity 208 nm",IFN-α2b [2]; [7],71.217 °C
same,"Tm, Ellipticity 222 nm",IFN-α2b [2]; [7],62.080 °C
same,Distorted Alpha Helix,IFN-α2b [3]; [8],0.145
same,Distorted Beta Sheet,IFN-α2b [3]; [8],0.071
same,Regular Alpha Helix,IFN-α2b [3]; [8],0.289
same,Regular Beta Sheet,IFN-α2b [3]; [8],0.049
same,Turns,IFN-α2b [3]; [8],0.209
same,Unordered,IFN-α2b [3]; [8],0.238
same,predicted α-helical content,"IFN-α2b [3]; IFN-α2b in water, CD deconvolution",0.44
"OC[C@H]1O[C@@](CO)(O[C@H]2O[C@H](CO)[C@@H](O)[C@H](O)[C@H]2O)[C@@H](O)[C@@H]1O [Sucrose, sucrose]",Kd,FITC-BSA; max. conc. first capillary 12.5 mM (monomer),no binding detected
same,Kd,FITC-BSA; max. conc. first capillary 400 mM (monomer),no binding detected
same,Distorted Alpha Helix,BSA [4]; 0.1 mM component,0.205
same,Distorted Beta Sheet,BSA [4]; 0.1 mM component,0.026
same,Regular Alpha Helix,BSA [4]; 0.1 mM component,0.391
same,Regular Beta Sheet,BSA [4]; 0.1 mM component,0.000
same,Turns,BSA [4]; 0.1 mM component,0.136
same,Unordered,BSA [4]; 0.1 mM component,0.242
same,Distorted Alpha Helix,BSA [4]; 1 mM component,0.216
same,Distorted Beta Sheet,BSA [4]; 1 mM component,0.023
same,Regular Alpha Helix,BSA [4]; 1 mM component,0.428
same,Regular Beta Sheet,BSA [4]; 1 mM component,0.000
same,Turns,BSA [4]; 1 mM component,0.135
same,Unordered,BSA [4]; 1 mM component,0.198
same,Distorted Alpha Helix,BSA [4]; 5 mM component,0.225
same,Distorted Beta Sheet,BSA [4]; 5 mM component,0.022
same,Regular Alpha Helix,BSA [4]; 5 mM component,0.427
same,Regular Beta Sheet,BSA [4]; 5 mM component,0.000
same,Turns,BSA [4]; 5 mM component,0.136
same,Unordered,BSA [4]; 5 mM component,0.19
same,Distorted Alpha Helix,BSA [4]; 25 mM component,0.196
same,Distorted Beta Sheet,BSA [4]; 25 mM component,0.024
same,Regular Alpha Helix,BSA [4]; 25 mM component,0.333
same,Regular Beta Sheet,BSA [4]; 25 mM component,0.004
same,Turns,BSA [4]; 25 mM component,0.131
same,Unordered,BSA [4]; 25 mM component,0.312
same,Distorted Alpha Helix,BSA [4]; 55 mM component,0.211
same,Distorted Beta Sheet,BSA [4]; 55 mM component,0.026
same,Regular Alpha Helix,BSA [4]; 55 mM component,0.412
same,Regular Beta Sheet,BSA [4]; 55 mM component,0.000
same,Turns,BSA [4]; 55 mM component,0.138
same,Unordered,BSA [4]; 55 mM component,0.214
same,Distorted Alpha Helix,BSA [4]; 90 mM component,0.211
same,Distorted Beta Sheet,BSA [4]; 90 mM component,0.025
same,Regular Alpha Helix,BSA [4]; 90 mM component,0.4
same,Regular Beta Sheet,BSA [4]; 90 mM component,0.000
same,Turns,BSA [4]; 90 mM component,0.137
same,Unordered,BSA [4]; 90 mM component,0.227
same,Distorted Alpha Helix,BSA [4]; 120 mM component,0.212
same,Distorted Beta Sheet,BSA [4]; 120 mM component,0.025
same,Regular Alpha Helix,BSA [4]; 120 mM component,0.415
same,Regular Beta Sheet,BSA [4]; 120 mM component,0.000
same,Turns,BSA [4]; 120 mM component,0.135
same,Unordered,BSA [4]; 120 mM component,0.213
same,Distorted Alpha Helix,BSA [4]; 200 mM component,0.216
same,Distorted Beta Sheet,BSA [4]; 200 mM component,0.024
same,Regular Alpha Helix,BSA [4]; 200 mM component,0.436
same,Regular Beta Sheet,BSA [4]; 200 mM component,0.000
same,Turns,BSA [4]; 200 mM component,0.136
same,Unordered,BSA [4]; 200 mM component,0.189
same,Tm,BSA [5]; 0.1 mM component,79.97 °C
same,ΔG,BSA [5]; 0.1 mM component,19.6 kcal/mol
same,ΔHcal,BSA [5]; 0.1 mM component,125 kcal/mol
same,ΔHcal/ΔHvH,BSA [5]; 0.1 mM component,0.968
same,ΔHvH,BSA [5]; 0.1 mM component,129.2 kcal/mol
same,ΔS,BSA [5]; 0.1 mM component,1.480 KJ/(mol.K)
same,Tm,BSA [5]; 1 mM component,81.63 °C
same,ΔG,BSA [5]; 1 mM component,26.77 kcal/mol
same,ΔHcal,BSA [5]; 1 mM component,167.4 kcal/mol
same,ΔHcal/ΔHvH,BSA [5]; 1 mM component,0.980
same,ΔHvH,BSA [5]; 1 mM component,170.8 kcal/mol
same,ΔS,BSA [5]; 1 mM component,1.974 KJ/(mol.K)
same,Tm,BSA [5]; 5 mM component,80.68 °C
same,ΔG,BSA [5]; 5 mM component,20.87 kcal/mol
same,ΔHcal,BSA [5]; 5 mM component,131.5 kcal/mol
same,ΔHcal/ΔHvH,BSA [5]; 5 mM component,1.018
same,ΔHvH,BSA [5]; 5 mM component,129.1 kcal/mol
same,ΔS,BSA [5]; 5 mM component,1.552 KJ/(mol.K)
same,Tm,BSA [5]; 10 mM component,80.77 °C
same,ΔG,BSA [5]; 10 mM component,25.17 kcal/mol
same,ΔHcal,BSA [5]; 10 mM component,159 kcal/mol
same,ΔHcal/ΔHvH,BSA [5]; 10 mM component,1.046
same,ΔHvH,BSA [5]; 10 mM component,151.9 kcal/mol
same,ΔS,BSA [5]; 10 mM component,1.878 KJ/(mol.K)
same,effect on BSA Tm (DSC),BSA [5]; tested concentration range vs water,maintained
same,"Tm, Ellipticity 192 nm",BSA [6],70.098 °C
same,"Tm, Ellipticity 208 nm",BSA [6],73.063 °C
same,"Tm, Ellipticity 222 nm",BSA [6],71.977 °C
